In ChEMBL document CHEMBL1201862, “PubChem BioAssay data set” (2004):
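Briefly, cells in 96-well plates were exposed to five compound concentrations for 48 h, and endpoints were estimated by linear interpolation. The concentration for 50% growth inhibition is given as GI50.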 Active and inactive are the calls of the source. No stated cut-off is given here; in the data, active = GI50 up to about 1.1 µM and inactive = higher.

What was measured:
Test in all cases: growth of human tumour cells (NCI), 48 h
SK-OV-3 = test system: SK-OV-3
SW-620 = test system: SW-620
RPMI-8226 = test system: RPMI-8226
UO-31 = test system: UO-31
MDA-MB-435 = test system: MDA-MB-435
U-251 = test system: U-251
SF-295 = test system: SF-295
NCI-H226 = test system: NCI-H226
OVCAR-3 = test system: OVCAR-3
SK-MEL-2 = test system: SK-MEL-2
K562 = test system: K562
OVCAR-5 = test system: OVCAR-5
SK-MEL-5 = test system: SK-MEL-5
PC-3 = test system: PC-3
SF-539 = test system: SF-539
IGROV-1 = test system: IGROV-1
MOLT-4 = test system: MOLT-4
NCI-H522 = test system: NCI-H522
HL-60 = test system: HL-60
SR = test system: SR

Row | Compound | GI50 (SK-OV-3) | GI50 (SW-620) | GI50 (RPMI-8226) | GI50 (UO-31) | GI50 (MDA-MB-435) | GI50 (U-251) | GI50 (SF-295) | GI50 (NCI-H226) | GI50 (OVCAR-3) | GI50 (SK-MEL-2) | GI50 (K562) | GI50 (OVCAR-5) | GI50 (SK-MEL-5) | GI50 (PC-3) | GI50 (SF-539) | GI50 (IGROV-1) | GI50 (MOLT-4) | GI50 (NCI-H522) | GI50 (HL-60) | GI50 (SR)
1 | COc1ccc2c(c1)nc1n2C(N)=Nc2ccccc2S1 | 67 µM (inactive) | 28.5 µM (inactive) | 8.73 µM (inactive) | 26.4 µM (inactive) | 32.4 µM (inactive) | 18.8 µM (inactive) | 44.2 µM (inactive) | 11.6 µM (inactive) | 5.55 µM (inactive) | > 100 µM (inactive) | 4.91 µM (inactive) | 36.6 µM (inactive) | 7.45 µM (inactive) | 16.5 µM (inactive) | 33.4 µM (inactive) | 3.75 µM (inactive) | 3.69 µM (inactive) | 16.6 µM (inactive) | 2.64 µM (inactive) | 
2 | O=c1oc2c(Cl)cc(Cl)cc2cc1-c1cn2c(n1)sc1ccccc12 | > 100 µM (inactive) | 31.9 µM (inactive) | 24.7 µM (inactive) | 36.1 µM (inactive) | 38.4 µM (inactive) | > 100 µM (inactive) | 59.2 µM (inactive) |  | 31.4 µM (inactive) | > 100 µM (inactive) | 20.2 µM (inactive) | > 100 µM (inactive) | 39.2 µM (inactive) | 47.1 µM (inactive) | > 100 µM (inactive) | 44.1 µM (inactive) | 20.4 µM (inactive) | 30.1 µM (inactive) | 23.9 µM (inactive) | 21.1 µM (inactive)
3 | OC[C@@H](O)[C@H]1NC[C@@H](O)[C@H]1O | > 100 µM (inactive) | > 100 µM (inactive) | > 100 µM (inactive) | > 100 µM (inactive) | > 100 µM (inactive) | > 100 µM (inactive) | > 100 µM (inactive) |  | > 100 µM (inactive) |  |  | > 100 µM (inactive) | > 100 µM (inactive) | > 100 µM (inactive) | > 100 µM (inactive) | > 100 µM (inactive) | > 100 µM (inactive) | > 100 µM (inactive) | > 100 µM (inactive) | > 100 µM (inactive)
4 | Cc1ccc2c(=O)cc(Cc3csc4ccccc34)[nH]c2n1 | 67 µM (inactive) | 40.7 µM (inactive) | 22.3 µM (inactive) | 22.4 µM (inactive) | 32.6 µM (inactive) | 69.8 µM (inactive) | 26 µM (inactive) | 18.1 µM (inactive) | 28.8 µM (inactive) | 79.3 µM (inactive) | 43.5 µM (inactive) | 60 µM (inactive) | 16.4 µM (inactive) | 67 µM (inactive) |  | 11.7 µM (inactive) | 38.3 µM (inactive) | 13.6 µM (inactive) |  | 
5 | O=S(=O)(O)c1cc(S(=O)(=O)O)c2cc(/N=N/c3c(O)ccc4ccccc34)ccc2c1 | > 100 µM (inactive) | > 100 µM (inactive) | > 100 µM (inactive) | > 100 µM (inactive) | > 100 µM (inactive) | > 100 µM (inactive) | > 100 µM (inactive) | > 100 µM (inactive) | > 100 µM (inactive) | > 100 µM (inactive) | > 100 µM (inactive) | > 100 µM (inactive) | > 100 µM (inactive) | > 100 µM (inactive) |  | > 100 µM (inactive) | > 100 µM (inactive) | > 100 µM (inactive) | > 100 µM (inactive) | 
6 | CCCCCCOC(=O)/C=C/[C@]1(CO)C/C(=C/CC(C(C)C)C(C)C)C(=O)O1 | 18.2 µM (inactive) | 12.5 µM (inactive) | 15.7 µM (inactive) | 4.46 µM (inactive) | 0.738 µM (active) |  | 10.4 µM (inactive) | 3.41 µM (inactive) | 11.9 µM (inactive) | 16.2 µM (inactive) | 0.406 µM (active) | 11.6 µM (inactive) | 2.13 µM (inactive) | 11.5 µM (inactive) |  | 15.1 µM (inactive) | 1.58 µM (inactive) | 12.3 µM (inactive) | 2.7 µM (inactive) | 
7 | CO[C@]12S[C@@H]3CCCC[C@@]31C(C)(C)C(=O)N2c1ccccc1 | 25.8 µM (inactive) | 30.4 µM (inactive) | 24.7 µM (inactive) | 91.4 µM (inactive) | 33.7 µM (inactive) | 26.6 µM (inactive) | 16 µM (inactive) |  | 15.2 µM (inactive) | 26.8 µM (inactive) | 29.7 µM (inactive) | > 100 µM (inactive) | 20.5 µM (inactive) | 23.6 µM (inactive) | 4.11 µM (inactive) | 46.2 µM (inactive) | 21.7 µM (inactive) | 27.6 µM (inactive) | 14.6 µM (inactive) | 28.5 µM (inactive)
8 | Sc1nnc(CNc2ccc(-c3nnc(S)n3-c3ccc(Cl)cc3)cc2)n1-c1ccc(Cl)cc1 | 34.4 µM (inactive) | 35.3 µM (inactive) | 16.7 µM (inactive) | 16.4 µM (inactive) | 28.3 µM (inactive) | 37.3 µM (inactive) | 26.9 µM (inactive) | 40.7 µM (inactive) |  | 22.4 µM (inactive) | 30.8 µM (inactive) | 18.1 µM (inactive) | 25.1 µM (inactive) | 36 µM (inactive) |  | 3.21 µM (inactive) | 26.2 µM (inactive) | 15.2 µM (inactive) |  | 
9 | O=P(O)(O)CN1CCNCCN(CP(=O)(O)O)CCNCC1 | 8.87 µM (inactive) | 4.74 µM (inactive) | 5.97 µM (inactive) | > 100 µM (inactive) | 12 µM (inactive) | > 24.4 µM (inactive) | > 100 µM (inactive) |  | > 100 µM (inactive) | > 100 µM (inactive) | 3.44 µM (inactive) | 10 µM (inactive) | 4.76 µM (inactive) | 24.9 µM (inactive) | 11.7 µM (inactive) | 6.52 µM (inactive) | 4.66 µM (inactive) | 9.38 µM (inactive) | 2.79 µM (inactive) | 1.79 µM (inactive)
10 | COc1ccc(/C=C/C(=O)C(C)(C)Br)cc1 | 22.2 µM (inactive) | 2.43 µM (inactive) | 3.42 µM (inactive) | 4.27 µM (inactive) | 11.5 µM (inactive) | 13.7 µM (inactive) | 17.9 µM (inactive) |  | 17.5 µM (inactive) | 12.2 µM (inactive) | 4.61 µM (inactive) | 12 µM (inactive) | 14.7 µM (inactive) | 11.7 µM (inactive) | 17.1 µM (inactive) | 1.71 µM (inactive) | 3.86 µM (inactive) | 1.22 µM (inactive) | 19.5 µM (inactive) | 3.3 µM (inactive)
11 | Cc1cc2[nH]c3c(C#N)c(-c4ccccc4)c(/C=N/c4ccc(Cl)cc4)c(=O)n3c2cc1C | > 100 µM (inactive) | > 100 µM (inactive) | > 100 µM (inactive) | > 100 µM (inactive) | > 100 µM (inactive) | > 100 µM (inactive) | > 100 µM (inactive) | > 100 µM (inactive) | > 100 µM (inactive) | > 100 µM (inactive) |  | > 100 µM (inactive) | > 100 µM (inactive) | > 100 µM (inactive) | > 100 µM (inactive) |  |  | > 100 µM (inactive) |  | 
12 | Cc1ccc(Nc2nc(=O)c3c([nH]c4ccccc43)s2)cc1 | 28.1 µM (inactive) | 10.8 µM (inactive) | 4.21 µM (inactive) | 2.9 µM (inactive) | 2.48 µM (inactive) | 12.8 µM (inactive) | 11.8 µM (inactive) |  | 14 µM (inactive) | 14.2 µM (inactive) | 6.27 µM (inactive) |  | 8.32 µM (inactive) | 15.1 µM (inactive) | 15.7 µM (inactive) | 13.7 µM (inactive) | 21.7 µM (inactive) | 14.6 µM (inactive) | 14.8 µM (inactive) | 4.68 µM (inactive)
13 | COC1=CC(=O)C2=C(C[C@@]3(C)C(=C2)C(CO)=CC[C@H]3O)C1=O | 88.5 µM (inactive) | 25.3 µM (inactive) | 18.4 µM (inactive) | 20 µM (inactive) | 20.7 µM (inactive) | 21 µM (inactive) | 22 µM (inactive) | 14 µM (inactive) | 24.9 µM (inactive) |  | 2.57 µM (inactive) | 27 µM (inactive) | 17.4 µM (inactive) | 28.2 µM (inactive) | 18.8 µM (inactive) | 14.6 µM (inactive) | 0.0975 µM (active) |  | 1.79 µM (inactive) | 
14 | CN(CC(=O)O)c1ncc2c(n1)-c1ccccc1OC2 |  | > 100 µM (inactive) | > 100 µM (inactive) | > 100 µM (inactive) | > 100 µM (inactive) | > 100 µM (inactive) | > 100 µM (inactive) |  |  | > 100 µM (inactive) | > 100 µM (inactive) | > 100 µM (inactive) | > 100 µM (inactive) | > 100 µM (inactive) | > 100 µM (inactive) | > 100 µM (inactive) | > 100 µM (inactive) | > 100 µM (inactive) | > 100 µM (inactive) | > 100 µM (inactive)
15 | O=C1Nc2ccccc2/C1=N/NC(=S)Nc1ccc([N+](=O)[O-])cc1 | 4.76 µM (inactive) | 4.01 µM (inactive) | 13.5 µM (inactive) | 4.81 µM (inactive) | 6.19 µM (inactive) | 5.85 µM (inactive) | 6.64 µM (inactive) |  | 13.4 µM (inactive) | 4.25 µM (inactive) | 2.88 µM (inactive) | 22.9 µM (inactive) | 10.4 µM (inactive) | 3.17 µM (inactive) | 13.8 µM (inactive) | 10.7 µM (inactive) | 2.28 µM (inactive) | 12.5 µM (inactive) | > 100 µM (inactive) | 4.72 µM (inactive)
